Experimental data: patent US20250074911A1, “MACROCYCLIC BTK INHIBITORS” (Crossfire Oncology Holding B.V., priority 2021, published 2025)

Columns and labels:
[1] = molecular target: BTK T474S (Homo sapiens (Human), UniProt Q06187, T474S); assay: Binding kinetics measurements (Surface Plasmon Resonance) on BTK T474S; details: for residence time: SPR binding kinetics, BTK T474S, read-out: Tau (h) BTK T474S (Act), target residence time (converted); for Kd: binding affinity by Surface Plasmon Resonance (SPR)
How it was run: (§1)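 Protein was immobilized on a streptavidin surface at 4° C, then equilibrated in running buffer containing 1% DMSO at 30 μl/min for at least 30 min. Compounds were injected five times at increasing concentrations (3.16-316 nM) at 22° C. Induced-fit binders were fitted with a two-state reaction model.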

[2] = molecular target: BTK T316A (Homo sapiens (Human), UniProt Q06187, T316A); assay: Binding kinetics measurements (Surface Plasmon Resonance) on BTK T316A; details: for Kd: binding affinity by Surface Plasmon Resonance (SPR); for Tau (h) BTK T316A (Act): target residence time, SPR
How it was run: as §1

BTK T316A, sequence (Q06187 whole entry T316A): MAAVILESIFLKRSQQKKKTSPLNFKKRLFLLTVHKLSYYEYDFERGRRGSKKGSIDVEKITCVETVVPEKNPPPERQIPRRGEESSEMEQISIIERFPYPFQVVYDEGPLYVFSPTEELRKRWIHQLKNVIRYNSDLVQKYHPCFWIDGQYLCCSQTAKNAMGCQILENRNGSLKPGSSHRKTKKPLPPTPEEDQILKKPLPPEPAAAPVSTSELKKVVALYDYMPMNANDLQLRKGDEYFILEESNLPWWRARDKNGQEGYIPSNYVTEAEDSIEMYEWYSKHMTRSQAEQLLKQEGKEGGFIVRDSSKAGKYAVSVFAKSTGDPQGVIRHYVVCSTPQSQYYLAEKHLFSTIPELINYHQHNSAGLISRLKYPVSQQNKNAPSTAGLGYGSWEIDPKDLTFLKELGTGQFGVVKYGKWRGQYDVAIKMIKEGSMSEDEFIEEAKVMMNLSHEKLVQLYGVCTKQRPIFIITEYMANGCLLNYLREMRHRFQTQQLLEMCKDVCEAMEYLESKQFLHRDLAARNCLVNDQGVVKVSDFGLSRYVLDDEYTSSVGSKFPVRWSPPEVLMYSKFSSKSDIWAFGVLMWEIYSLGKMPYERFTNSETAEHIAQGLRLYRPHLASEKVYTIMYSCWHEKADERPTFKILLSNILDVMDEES
BTK T474S, sequence (Q06187 whole entry T474S): as the sequence (Q06187 whole entry T316A) above, with A316T, T474S counted along it

Row | residence time [1] [h] | Kd [1] [nM] | Kd [2] [nM] | Tau (h) BTK T316A (Act) [2] [h] | Compound
1 | 2.64 | < 3 | < 5 | 3.55 | Nc1ncc2c3c1c(-c1ccc(C(=O)Nc4cc(C(F)(F)F)ccn4)cc1)nn3[C@@H]1CCC[C@H](C1)NC(=O)CCOC/C=C/2 [Example 25]
2 | 2.94 | < 3 | < 5 | 6.06 | C[C@@H]1CC(=O)N[C@@H]2CCC[C@H](C2)n2nc(-c3ccc(C(=O)Nc4cc(C(F)(F)F)ccn4)cc3)c3c(N)ncc(c32)/C=C/CCN1 [Example 45]
